# Assay results published in patent US12606543B2, “Indole derivatives as serotonergic agents useful for the treatment of disorders related thereto” (priority 2023, dated 2026).
# Key:
# Type in all cases: in vitro ADME
# [1] = Liver microsomes stability, rat; settings: for CLint / T1/2: 2 μM, 0.5 mg/mL, NADPH
# Procedure: (§1) The objective of this study was to estimate in vitro metabolic stability of exemplary compounds of Formula (I) or a pharmaceutically acceptable salt, solvate, and/or prodrug thereof in pooled human, male rat, and male mouse liver microsomes. The concentrations of compounds in reaction systems were evaluated by LC-MS/MS for estimating the stability in pooled human, male rat, and male mouse liver microsomes. The in vitro intrinsic clearances of test compounds were determined as well.
# (§2) A master solution in the “Incubation Plate” containing phosphate buffer, ultra-pure H2O, MgCl2 solution and liver microsomes was made according to Table 33. The mixture was pre-warmed at 37° C. water bath for 5 minutes.
# (§3) 40 μL of 10 mM nicotinamide adenine dinucleotide phosphate (NADPH) solution was added to each well. The final concentration of NADPH was 1 mM. The negative control samples were prepared by replacing NADPH with 40 μL of ultra-pure H2O. Samples were prepared in duplicate. Negative controls were prepared in singlet.
# (§4) The reaction was started with the addition of 4 μL of 200 μM exemplary test compounds of the disclosure or control compounds to each master solution to get the final concentration of 2 μM. This study was performed in duplicate.
# (§5) Aliquots of 50 μL were taken from the reaction solution at 0, 15, 30, 45, and 60 minutes. The reaction solutions were stopped by the addition of 4 volumes of cold methanol with IS (100 nM alprazolam, 200 nM imipramine, 200 nM labetalol, and 2 μM ketoprofen). Samples were centrifuged at 3,220 g for 40 minutes. Aliquot of 90 μL of the supernatant was mixed with 90 μL of ultra-pure H2O and then was used for LC-MS/MS analysis.
# (§6) LC/MS analysis was performed for all samples from this study using a Shimadzu liquid chromatograph separation system equipped with degasser DGU-20A5R; solvent delivery unit LC-30AD; system controller SIL-30AC; column oven CTO-30A; CTC Analytics HTC PAL System. Mass spectrometric analysis was performed using a Triple Quad™ 5500 instrument.
# (§7) All calculations were carried out using Microsoft Excel. Peak area ratios of test compound to internal standard (listed in the below table) were determined from extracted ion chromatograms.
# (§8) All calculations were carried out using Microsoft Excel. Peak areas were determined from extracted ion chromatograms. The slope value, k, was determined by linear regression of the natural logarithm of the remaining percentage of the parent drug vs. incubation time curve.
# (§9) The in vitro half-life (in vitro t1/2) was determined from the slope value:
# (§10) Conversion of the in vitro t1/2 (min) into the in vitro intrinsic clearance (in vitro CLint, in μL/min/mg proteins) was done using the following equation (mean of duplicate determinations): […]
# as §1, with “solvate” for “solvate,”, “rat” for “rat,”
# (§11) A master solution in the “Incubation Plate” containing phosphate buffer, ultra-pure H2O, MgCl2 solution and liver microsomes was made according to Table 67. The mixture was pre-warmed at 37° C. water bath for 5 minutes.
# (§12) 40 μL of 10 mM NADPH solution was added to each well. The final concentration of NADPH was 1 mM. The negative control samples were prepared by replacing NADPH with 40 μL of ultra-pure H2O. Samples were prepared in duplicate. Negative controls were prepared in singlet
# (§13) Aliquots of 50 μL were taken from the reaction solution at 0, 15, 30, 45 and 60 minutes. The reaction solutions were stopped by the addition of 4 volumes of cold methanol with IS (100 nM alprazolam, 200 nM imipramine, 200 nM labetalol and 2 μM ketoprofen). […]
# [2] = Liver microsomes stability, mouse; settings: for T1/2: <4.51 if % remaining at 30 min below 1%
# Procedure: as §1, §2, §3, §4, §5, §6, §7, §8, §9, §10
# as §1, with “solvate” for “solvate,”, “rat” for “rat,”
# as §11, §12, §13
# [3] = Liver microsomes stability, human
# Procedure: as §1, §2, §3, §4, §5, §6, §7, §8, §9, §10
# as §1, with “solvate” for “solvate,”, “rat” for “rat,”
# as §11, §12
# Aliquots of 50 μL were taken from the reaction solution at 0, 15, 30, 45 and 60 minutes. The reaction solutions were stopped by the addition of 4 volumes of cold methanol with IS (100 nM alprazolam, 200 nM imipramine, 200 nM labetalol and 2 μM ketoprofen).
# [4] = Rat liver microsomes, With Cofactors, 0 min
# [5] = Rat liver microsomes, With Cofactors, 30 min
# [6] = Rat liver microsomes, With Cofactors, 60 min
# [7] = Rat liver microsomes, Without Cofactors, 0 min
# [8] = Rat liver microsomes, Without Cofactors, 30 min
# [9] = Rat liver microsomes, Without Cofactors, 60 min
# [10] = rat liver microsomes, With Cofactors, 0 min
# [11] = rat liver microsomes, With Cofactors, 30 min
# [12] = rat liver microsomes, With Cofactors, 60 min
# [13] = rat liver microsomes, Without Cofactors, 0 min
# [14] = rat liver microsomes, Without Cofactors, 30 min
# [15] = rat liver microsomes, Without Cofactors, 60 min
# [16] = Mouse liver microsomes, 2 μM, 0.5 mg/mL, NADPH
# [17] = mouse liver microsomes, With Cofactors, 0 min
# [18] = mouse liver microsomes, With Cofactors, 30 min
# [19] = mouse liver microsomes, With Cofactors, 60 min
# [20] = mouse liver microsomes, Without Cofactors, 0 min
# [21] = mouse liver microsomes, Without Cofactors, 30 min
# [22] = mouse liver microsomes, Without Cofactors, 60 min
# [23] = Human liver microsomes, 2 μM, 0.5 mg/mL, NADPH
# [24] = human liver microsomes, With Cofactors, 0 min
# [25] = human liver microsomes, With Cofactors, 30 min
# [26] = human liver microsomes, With Cofactors, 60 min
# [27] = human liver microsomes, Without Cofactors, 0 min
# [28] = human liver microsomes, Without Cofactors, 30 min
# [29] = human liver microsomes, Without Cofactors, 60 min
smiles,measurement,setting,value
COc1ccc2[nH]cc(CCN(C)C)c2c1 [5-MeO-DMT],Predicted hepatic CL,[1]; Rat liver microsomes,49.02 mL/min/kg
same,Scaled-up CLint,[1]; Rat liver microsomes,437.56 mL/min/kg
same,CLint,[1]; Rat liver microsomes,244.17 μL/min/mg protein
same,T1/2,[1]; Rat liver microsomes,5.68 min
same,Remaining Percentage (%) 0 min,[1]; [4],100.00%
same,Remaining Percentage (%) 30 min,[1]; [5],2.57%
same,Remaining Percentage (%) 60 min,[1]; [6],0.36%
same,Remaining Percentage (%) 0 min,[1]; [7],100.00%
same,Remaining Percentage (%) 30 min,[1]; [8],49.55%
same,Remaining Percentage (%) 60 min,[1]; [9],23.82%
same,Remaining Percentage,[1]; [10],100.00%
same,Remaining Percentage,[1]; [11],2.57%
same,Remaining Percentage,[1]; [12],0.36%
same,Remaining Percentage,[1]; [13],100.00%
same,Remaining Percentage,[1]; [14],49.55%
same,Remaining Percentage,[1]; [15],23.82%
same,Predicted hepatic CL,[2]; Mouse liver microsomes,54.19 mL/min/kg
same,Scaled-up CLint,[2]; Mouse liver microsomes,136.21 mL/min/kg
same,T1/2,[2]; [16],44.52 min
same,CLint,"[2]; Mouse liver microsomes, 2 μM, 0.5 mg/mL, NADPH, >307.01 if % remaining at 30 min below 1%",31.13 μL/min/mg protein
same,Remaining Percentage,[2]; [17],100.00%
same,Remaining Percentage (%) 0 min,[2]; [17],100.00%
same,Remaining Percentage,[2]; [18],61.84%
same,Remaining Percentage (%) 30 min,[2]; [18],61.84%
same,Remaining Percentage,[2]; [19],39.30%
same,Remaining Percentage (%) 60 min,[2]; [19],39.30%
same,Remaining Percentage,[2]; [20],100.00%
same,Remaining Percentage (%) 0 min,[2]; [20],100.00%
same,Remaining Percentage,[2]; [21],104.76%
same,Remaining Percentage (%) 30 min,[2]; [21],104.76%
same,Remaining Percentage,[2]; [22],95.24%
same,Remaining Percentage (%) 60 min,[2]; [22],95.24%
same,Predicted hepatic CL,[3]; Human liver microsomes,18.09 mL/min/kg
same,Scaled-up CLint,[3]; Human liver microsomes,143.22 mL/min/kg
same,CLint,[3]; [23],114.19 μL/min/mg protein
same,T1/2,[3]; [23],12.14 min
same,Remaining Percentage,[3]; [24],100.00%
same,Remaining Percentage (%) 0 min,[3]; [24],100.00%
same,Remaining Percentage,[3]; [25],19.24%
same,Remaining Percentage (%) 30 min,[3]; [25],19.24%
same,Remaining Percentage,[3]; [26],3.25%
same,Remaining Percentage (%) 60 min,[3]; [26],3.25%
same,Remaining Percentage,[3]; [27],100.00%
same,Remaining Percentage (%) 0 min,[3]; [27],100.00%
same,Remaining Percentage,[3]; [28],18.58%
same,Remaining Percentage (%) 30 min,[3]; [28],18.58%
same,Remaining Percentage,[3]; [29],3.00%
same,Remaining Percentage (%) 60 min,[3]; [29],3.00%
O=C(O)Cc1ccccc1Nc1c(Cl)cccc1Cl [Diclofenac],Predicted hepatic CL,[1]; Rat liver microsomes,41.25 mL/min/kg
same,Scaled-up CLint,[1]; Rat liver microsomes,163.16 mL/min/kg
same,CLint,[1]; Rat liver microsomes,91.05 μL/min/mg protein
same,T1/2,[1]; Rat liver microsomes,15.22 min
same,Remaining Percentage (%) 0 min,[1]; [4],100.00%
same,Remaining Percentage (%) 30 min,[1]; [5],11.86%
same,Remaining Percentage (%) 60 min,[1]; [6],6.35%
same,Remaining Percentage (%) 0 min,[1]; [7],100.00%
same,Remaining Percentage (%) 30 min,[1]; [8],102.19%
same,Remaining Percentage (%) 60 min,[1]; [9],100.63%
same,Predicted hepatic CL,[1]; rat liver microsomes,41.22 mL/min/kg
same,Scaled-up CLint,[1]; rat liver microsomes,162.69 mL/min/kg
same,Remaining Percentage,[1]; [10],100.00%
same,Remaining Percentage,[1]; [11],11.86%
same,Remaining Percentage,[1]; [12],6.35%
same,Remaining Percentage,[1]; [13],100.00%
same,Remaining Percentage,[1]; [14],102.19%
same,Remaining Percentage,[1]; [15],100.63%
same,Predicted hepatic CL,[2]; Mouse liver microsomes,54.78 mL/min/kg
same,Scaled-up CLint,[2]; Mouse liver microsomes,140.00 mL/min/kg
same,T1/2,[2]; [16],43.31 min
same,Predicted hepatic CL,[2]; mouse liver microsomes,56.11 mL/min/kg
same,Scaled-up CLint,[2]; mouse liver microsomes,149.03 mL/min/kg
same,CLint,"[2]; mouse liver microsomes, 2 μM compound, 0.5 mg/mL microsomes",34.06 μL/min/mg protein
same,Remaining Percentage,[2]; [17],100.00%
same,Remaining Percentage (%) 0 min,[2]; [17],100.00%
same,Remaining Percentage,[2]; [18],45.55%
same,Remaining Percentage (%) 30 min,[2]; [18],45.55%
same,Remaining Percentage,[2]; [19],33.71%
same,Remaining Percentage (%) 60 min,[2]; [19],33.71%
same,Remaining Percentage,[2]; [20],100.00%
same,Remaining Percentage (%) 0 min,[2]; [20],100.00%
same,Remaining Percentage,[2]; [21],89.49%
same,Remaining Percentage (%) 30 min,[2]; [21],89.49%
same,Remaining Percentage,[2]; [22],96.59%
same,Remaining Percentage (%) 60 min,[2]; [22],96.59%
same,Predicted hepatic CL,[3]; Human liver microsomes,18.35 mL/min/kg
same,Scaled-up CLint,[3]; Human liver microsomes,161.94 mL/min/kg
same,Predicted hepatic CL,[3]; human liver microsomes,18.38 mL/min/kg
same,Scaled-up CLint,[3]; human liver microsomes,164.18 mL/min/kg
same,Remaining Percentage,[3]; [24],100.00%
same,Remaining Percentage (%) 0 min,[3]; [24],100.00%
same,Remaining Percentage,[3]; [25],5.01%
same,Remaining Percentage (%) 30 min,[3]; [25],5.01%
same,Remaining Percentage,[3]; [26],1.77%
same,Remaining Percentage (%) 60 min,[3]; [26],1.77%
same,Remaining Percentage,[3]; [27],100.00%
same,Remaining Percentage (%) 0 min,[3]; [27],100.00%
same,Remaining Percentage,[3]; [28],112.67%
same,Remaining Percentage (%) 30 min,[3]; [28],112.67%
same,Remaining Percentage,[3]; [29],96.67%
same,Remaining Percentage (%) 60 min,[3]; [29],96.67%
